Measured values as given in patent US20190216751A1, “Compositions and Methods for the Treatment and Prevention of Cancer” (California State University Northridge, priority 2017, published 2019).

Columns and labels:
[1] = system: 4T1, 67NR, MCF10AT1k, MCF10CA1h and MCF10CA1a; experiment: Cell viability at 100 μM GC7, phase-contrast imaging across cell lines; format: cell-based, mouse, human; conditions: 100 μM GC7, 48 hours
Description: There are currently two drugs available that can target the activation of eIF5A. Its role of hypusination/activation is spermidine dependent and is carried out in two subsequent steps by the enzymes deoxyhypusine synthase (DHPS) catalyzing the first step and deoxyhypusine hydroxylase (DOHH) catalyzing the second step. The efficacy and potency of the two drugs in the selected cell lines; GC7 (N1-Guanyl-1,7-diaminoheptane)—a selective inhibitor of DHPS, and CPX (Ciclopirox olomine)—which chelates iron that is important for the activity of DOHH (FIG. 2A) are shown. The concentration that determines a 50% decrease in cell viability is noted by the IC50 values on each graph for each drug. These cells were imaged when treated with the second highest concentration of GC7 at 100 μM to show a decrease in cell viability after 48 hours of treatment (FIG. 2B). […] From this point forward, all experiments performed used only GC7 as the selected drug to target hypusinated eIF5A.
The inventors sought to determine if the decrease in cell viability is due to the inhibition of post translational modification of eIF5A. To test this, all cell lines were treated with GC7 at 100 μM for 48 hours—which were the time point and concentration at which a decrease in cell viability was seen (FIG. 2B). […]

[2] = system: eIF5A localization in 4T1 cells; experiment: Immunofluorescence, subcellular localization of total eIF5A; format: cell-based, mouse; conditions: 10 μM each drug, 48 hours
Text: The next research questions revolved around asking how TGFβ is regulating eIF5A and what other proteins might be involved to completely block TGFβ-induced EMT. This led to histone deacetylase enzyme 6 (HDAC6). HDAC6 has been previously reported to be responsible for the deacetylation of eIF5A in the nucleus in order to make it readily available for hypusination and later transport out in the cytoplasm for functioning as a translation factor. To determine if it were possible to further increase the efficacy or potency of GC7, the inventors co-treated with Tubastatin A (an HDAC6 inhibitor) in 4T1 and 67NR cells as well as MDA-MB-468 cells which initially were not very sensitive to GC7. Triple negative human breast cancer cell line, BT547, was also used to see if another cell line representative of this breast cancer subtype was sensitive towards DHPS and HDAC6 inhibition. (FIGS. 5A and 5B). Here, are shown cell viability graphs for these four cell lines pretreated with GC7 at 1 μM and after 12 hours were exposed to various concentrations of Tubastatin A (TubA) ranging from 0.1 nM to 100 μM. […] MDA-MB-468 and BT549 cells remained to be insensitive to TubA with or without GC7 pretreatment (FIG. 5A). […]

## N=C(N)NCCCCCCCN.O=S(=O)(O)O [GC7, N1-Guanyl-1,7-diaminoheptane]
[1]
  decrease in cell viability: largest decrease in cell viability
[2]
  localization of total eIF5A: predominantly cytoplasmic
